The record followed here is patent publication US5580542A, “Method of testing for nephritis” (Kureha Kagaku Kogyo K.K., priority 1993, dated 1996).

Data set [1] is described as follows: Test 4: concentrations of PAH and AcPAH in blood after Na-PAH. It is filed as in vivo, Sprague-Dawley male rats. The following applies: 40 mg Na-PAH single shot jugular vein; serum at 30, 60, 90, 120 minutes. The method, then: In the test, the rate of secretion of an acetyltransferase activity measuring agent according to this invention into urine was tested.
An aqueous solution of 40 mg of sodium p-aminohippurate (Na-PAH) in 200 μl of distilled water was administered as a single shot to the jugular vein of each rat under anesthesia with ethyl ether. Upon elapsed time of 30 minutes, 60 minutes, 90 minutes and 120 minutes, the concentrations of PAH and AcPAH in blood were measured by high-performance liquid chromatography. Serum was used in an amount of 50 μl each time. The pretreatment method and analysis conditions were the same as in Test 2.

The subject of the next data set is Clone 9. Briefly: Test 1: acetyltransferase activity, conversion of p-aminobenzoic acid to p-acetamidobenzoic acid in culture (GC-MS). The data set is classed as cell-based, rat. The following applies: Clone 9 (liver); culture medium after 2 to 3 days. As to the method: (§1) In this test, the activity of acetyltransferase was evaluated by an in-vitro experiment with respect to p-aminobenzoic acid.
(§2) The left and right kidneys of 7 weeks-old Sprague-Dawley female rats were excised. After the renal cortices were shredded, mesangial cells were prepared by the Sieving's method. For the sake of comparison, "A7r5" (trade name, derived from fetal thoracic aortic smooth muscle), "Clone 9" (trade name. derived from liver), "H9 c2 (2-1)" (trade name, derived from cardiorhabdium), "IEC-18" (trade name, derived from the small intestine) and "NRK-52E" (trade name, derived from epithelial cells of renal tubule), all products of Flow Corp., U.S.A., were used as cells derived from rats.
(§3) Using as a culture medium "RPMI-1640" (trade name; product of Flow Corp.; U.S.A.) added with fetal bovine serum (product of GIBCO Corp.) whose concentration was finally 10% in the medium, those cells were cultured in a 5% CO2 incubator. Since the p-amionbenzoic acid contained in RPMI-1640 was converted to p-acetamidobenzoic acid by the above culture, detection was conducted with respect to the p-acetamidobenzoic acid so converted.
(§4) Namely, 2 ml of each culture medium after the lapse of 2 to 3 days since its culture were subjected to centrifugal ultrafiltration to eliminate proteins. One ml of the filtrate was added with 30 μl of 1N hydrochloric acid to adjust the pH to pH 1. Added next were 10 μg of p-pentylbenzoic acid, as an internal standard, and 0.5 g NaCl. The resulting mixture was shaken three times together with 3 ml portions of ethyl acetate to conduct liquid/liquid extraction of the organic acid component. After the extract was dried under a nitrogen gas stream, 40 μl of N,O-bis(trimethylsilyl)trifluoroacetamide and 10 μl of trimethylchlorosilane were added. The resulting mixture was stirred at 60° C. for 1 hour so that the organic acid component was trimethylsilylated. The trimethylsilylated organic acid component was then detected by gas chromatography mass spectrometry. The activity of acetyltransferase was evaluated by the relative height of a peak corresponding to p-acetamidobenzoic acid. The following evaluation standard was employed:-: smaller than 50,000,+: 50,000 or greater but smaller than 500,000, ++: 500,000 or greater, all in terms of abundance.

The test system of another data set is Mesangial cells. Described as above. The data set is classed as cell-based, rat. The method, then: as §1, §2, §3, §4
For another data set, the system named is H9c2(2-1). Described as above. It is filed as cell-based, rat. The following applies: H9c2(2-1) (cardiorhabdium); culture medium after 2 to 3 days. As to the method:
as §1, §2, §3, §4

Another data set has as its system A7r5. Described as above. It is filed as cell-based, rat. Conditions: A7r5 (fetal thoracic aortic smooth muscle); culture medium after 2 to 3 days. The method, then:
as §1, §2, §3, §4

A further data set relates to IEC-18. Described as above. The data set is classed as cell-based, rat. The following applies: IEC-18 (small intestine); culture medium after 2 to 3 days. As to the method: as §1, §2, §3, §4
The next data set deals with NRK-52E. Described as above. The data set is classed as cell-based, rat. Conditions: NRK-52E (epithelial cells of renal tubule); culture medium after 2 to 3 days. The method, then: as §1, §2, §3, §4
A short description of data set [2]: Test 2: urinal AcPAH/PAH ratio after Na-PAH in renal arterial ligature rats. It is filed as in vivo, Sprague-Dawley male rats. Conditions: 40 mg Na-PAH single shot jugular vein, 24 h urine; for urinal AcPAH/PAH ratio, individual rats: day 37 after operation. As to the method: In this test, an investigation was conducted about the relationship, if any, between the degree of ligature of the renal artery, which serves as an index for the degree of progress of the pathema of a kidney disease, and the concentration ratio of p-acetyl-aminohippuric acid (AcPAH) to p-aminohippuric acid (PAH) in urine.
Depending on whether the renal arterial carina ligating method was applied and if so, how tight the ligating method as applied, the rats were divided into three groups, each consisting of three of the rats, that is, a sham-operation group (i.e., control), a 1/2 renal arterial ligature group (only one kidney was functioning) and a 5/6 renal arterial ligature group. On the 37th day after the operation, an aqueous solution of 40 mg of sodium p-aminohippurate (Na-PAH) in 200 μl of distilled water was administered as a single shot to the jugular vein of each rat under anesthesia with ethyl ether. The rat was then immediately placed in metabolism test cage, and urine was collected over 24 hours. The concentrations of AcPAH and PAH in urine were analyzed by high-performanceliquid chromatography in a manner to be described subsequently herein, whereby the ratio of AcPAH to PAH (AcPAH/PAH) was determined.
Namely, 150 μl of methanol, which contained 1 μg of vanillic acid as an internal standard substance, were added to 50 μl of fivefold dilute urine. After the resulting mixture was stirred and centrifuged, the supernatant was collected and was subjected to filtration by centrifugation. By high-performance liquid chromatography, 10 μl of the supernant so obtained were quantitatively analyzed under the following analysis conditions:
Column: "Unisil Pack 250B" (trade name, product of GL Science Inc.)
Mobile phase: water/acetic acid/acetonitrile=93.5/0.5/6 (pH 3, approximately)
Column oven temperature: 40° C.

The nature of data set [3]: Test 3: time-dependent stability of urinal AcPAH/PAH ratio after Na-PAH. The following applies: 40 mg Na-PAH single shot jugular vein, 24 h urine, test repeated 7 times on different days. The data set is classed as in vivo, Sprague-Dawley male rats. As to the method:
In this test, an investigation was conducted about the time-dependent stability of test results which were obtained using an acetyltransferase activity measuring agent according to the present invention.
An aqueous solution of 40 mg of sodium p-aminohippurate (Na-PAH) in 200 μl of distilled water was administered as a single shot to the jugular vein of each rat under anesthesia with ethyl ether. The rat was then immediately placed in metabolism test cage, and urine was collected over 24 hours. The concentrations of AcPAH and PAH in urine were analyzed as in Test 2, whereby the AcPAH/PAH ratio was determined. The above test was repeated 7 times on different days so that its average value, standard deviation (S.D.) and coefficient of variations (C.V.) were determined.

Setting [4] is: 1/2 Renal arterial ligature group (n = 3).
Setting [5] is: 5/6 Renal arterial ligature group (n = 3).

Each structure is given as a SMILES string. Several values for one entry are separate records, joined by “and”; a condition that tells them apart may be missing. Equal values may be shown once.

`CC(=O)Nc1ccc(C(=O)NCC(=O)O)cc1` [AcPAH, p-acetyl-aminohippuric acid]: the “concentration of metabolite AcPAH in blood versus time (FIG. 2)” value in data set [1] is “becomes low in concentration in 120 minutes after the administration”.

Turning to `Nc1ccc(C(=O)O)cc1` [p-aminobenzoic acid], the “Evaluation results: activity of acetyltransferase by relative height of peak corresponding to p-acetamidobenzoic acid” value is “- (smaller than 50,000)” in the data set on Clone 9; “++ (500,000 or greater)” in the data set with Mesangial cells (Mesangial cells from rat renal cortex, culture medium after 2 to 3 days); “- (smaller than 50,000)” in the data set with H9c2(2-1); “- (smaller than 50,000)” in the data set with A7r5; “- (smaller than 50,000)” in the data set on IEC-18; “- (smaller than 50,000)” with NRK-52E. In addition, the “N-acetyltransferase activity to p-aminobenzoic acid (in words)” value in the data set with Mesangial cells (Mesangial cells) is reported as “confirmed to have N-acetyltransferase activity”.

For the molecule `Nc1ccc(C(=O)NCC(=O)O)cc1` [PAH, p-aminohippuric acid], in data set [1], the “elimination of PAH from blood (concentration in blood versus time, FIG. 1)” value is given as “substantially eliminated from blood in 120 minutes after the administration”.

As for `Nc1ccc(C(=O)NCC(=O)[O-])cc1.[Na+]`, the “urinal AcPAH/PAH ratio, Ave.” value turned out to be 0.146 in [2] (setting [4]), 0.250 in [2] (setting [5]) and 0.125 in data set [2] (Sham-operation group (n = 3)). Also, the “urinal AcPAH/PAH ratio, individual rats” value was 0.144 and 0.153 and 0.141 in [2] (setting [4]); 0.236 and 0.242 and 0.272 in data set [2] (setting [5]); 0.132 and 0.121 and 0.123 in [2] (Sham-operation group (n = 3)). Moreover, the “Urinal AcPAH/PAH, Ave.” value in [3] (Rat #1) turned out to be 0.125; in data set [3] (Rat #2), 0.100; in data set [3] (Rat #3), 0.131.
